Like-named read-outs stand apart in the source and are kept apart here. One block for each molecule: values may come before it.
Assays:
[1] = Liver microsomal stability assay, human; type: in vitro ADME; conditions: for Clint in vitro / half-life at 0.1 μM: human liver microsomes; for half-life at 0.1 μM: pH 7.4
Description: (§1) Liver Microsomal Stability Assay. Microsomes in 0.1 M TRIS buffer pH 7.4 (final concentration 0.33 mg/mL), co-factor MgCl2 (final concentration 5 mM) and tested compound (final concentration 0.1 μM, co-solvent (0.01% DMSO) and 0.005% Bovin serum albumin) were incubated at 37°C for 10min. The reaction was started by the addition of NADPH (final concentration 1 mM). Aliquots were sampled at 0, 7, 17, 30 and 60 min, respectively, and methanol (cold in 4 °C) was added to terminate the […]
(§2) reaction. […]

[2] = Liver microsomal stability assay, rat; type: in vitro ADME; conditions: rat liver microsomes; for half-life at 0.1 μM: pH 7.4
Description: as §1, §2

[3] = design: method as in PMID 17504222; conditions: literature value for 2; ref 8a; cited from earlier work
[4] = Preliminary pharmacokinetic parameters (p.o. and i.v.); type: in vivo; conditions: for MRT inf: read-out: MRTINF_obs
Description: Table S4. Preliminary Pharmacokinetic Parameters for Compound 15a a-c
T1/2 Tma Cmax AUC CL_obs MRTINF_obs Vss_obs F […]
aValues are the average of three runs. Vehicle: DMSO, Tween 80, normal saline. CL, clearance; Vss, volume of distribution; T1/2, half-life; Cmax, maximum concentration; Tmax, time of maximum concentration; MRT, mean residence time; AUC, area under the plasma concentration time curve; F, oral bioavailability. bDose: p.o. at 3.0 mg/kg; cDose: i.v. at 1.0

[5] = target: T1, hERG potassium ion channel (Homo sapiens, UniProt Q12809); experiment: hERG cardiotoxicity assay (manual patch clamp, HEK293); type: cell-based; conditions: whole-cell patch clamp, read-out: hERG inhibition IC50
T1 construct: expressed in transfected cells; host or cells: HEK293 (human embryonic kidney cells stably expressing hERG channels)
Description: hERG Cardiotoxicity Assay. The human embryonic kidney cells stably expressing hERG channels were used in the study.
vehicle control were delivered separately to the clamped cells by a 6-channel perfusion system. The hERG channel tail currents were recorded by clampex 10.3. The data were collected and analyzed by clampfit 10.3. The peak of the tail currents in the presence of positive control and test article were normalized with the currents recorded in the presence of corresponding vehicle control as 100 %, respectively. The IC50 value was calculated using GraphPad Prism 5.00.

[6] = tested on: LPS-induced TNF-α release; experiment: LPS-induced TNF-α release in mouse primary peritoneal macrophages (ELISA); type: cell-based; conditions: Peritoneal macrophage, LPS (0.5 μg/mL) 24 h, 30 min pretreatment, read-out: IC50 against the release of TNF-α
Description: (§3) Figure S3. Inhibitory activity of the benzo[def]carbazole-3,5-diones against LPS-induced TNF-α and IL-6 secretion in mouse peritoneal macrophages. Macrophages were plated at a density of 5 × 10^5/plate for overnight at 37 °C and in 5% CO2. Cells were pretreated with 5 or tanshinone analogues (10 μM) for 30 min, then treated with LPS (0.5 μg/mL) for 24 h. L6H21 (19) was used as a positive control. TNF-α and IL-6 levels in the culture medium were measured by ELISA and were normalized by the total protein level. The results were presented as the percent of LPS control. Each bar represents the mean ± SD of three independent experiments.
(§4) Statistical significance relative to the LPS group is indicated: ∗ , p < 0.05; ∗∗, p < 0.01.
(§5) (1 picture or pasted object on this page, not shown here)
(§6) Figure S5. […]
(§7) 30 min, then treated with LPS (0.5 μg/mL) for 24 h. IL-6 and TNF-α levels in the culture media were measured by ELISA and were normalized by the total protein. The results were expressed as the percent of LPS. […]
(§8) Determination of TNF-α and IL-6. The levels of TNF-α and IL-6 in medium, bronchoalveolar lavage fluid (BALF) and serum were determined with an ELISA kit (eBioScience, San Diego, CA) according to the manufacturer’s instructions. The total amount of the inflammatory factor in the medium was normalized to the total protein quantity of the viable cell pellets. […]

LPS-induced ALI in mice = experiment: LPS-induced acute lung injury (ALI) in mice; type: in vivo
Description: LPS-Induced Acute Lung Injury (ALI) in B6 Mice. Compound 15a was first
dissolved with macrogol 15 hydroxystearate (a nonionic solubilizer for injection from
BASF) with or without medium chain triglycerides (MCT, from BASF) in a water bath
at 37 °C. The concentration of compound was 2 mg/mL. The concentration of
solubilizer was 5−10%, and that for MCT was 0.5−2% in final solution. For the vehicle,
the mixture of solubilizer and MCT was prepared at 10% and 2%, respectively. Mice,
weighing 20−24 g, were randomized to the following three groups of seven animals
each: CON group, LPS group, 15a + LPS group. 15a + LPS group mice were pretreated
with compounds in a water solution (5 mg/kg) by i.v injection 15 min before 5 mg/kg
of LPS was administered by intratracheal instillation. The animals in CON group
received a similar volume of vehicle. After 6 hours, mice were euthanized to collect the
BALF, serum and lung tissue samples. […]
Determination Total Protein Concentration and Number of Neutrophils in BALF.
Bronchoalveolar lavage fluid (BALF) cells and supernatant were separated by
centrifugal separation at 4 °C and 3,000 rpm for 10 minutes. Total protein concentration
in supernatant of BALF was measured using a coomassie blue staining assay kit
according to the manufacturer's instructions. The cells of BALF were resuspended in
40 μL of physiological saline and used for neutrophil cell counts by Wright–Giemsa
Serum Analysis. Blood was collected from mice at sacrifice and was centrifuged at 4
°C and 12,000 rpm for 10 minutes. […]
Real-Time Quantitative PCR. Lung tissues were homogenized in TRIZOL kit
(Invitrogen, Carlsbad, CA) for extraction of RNA according to each manufacturer’s
protocol. Both reverse transcription and quantitative PCR were carried out using a two-
step M-MLV Platinum SYBR Green qPCR SuperMix-UDG kit (Invitrogen, Carlsbad,
CA). Eppendorf Mastercycler ep realplex detection system (Eppendorf, Hamburg,
Germany) was used for RT-qPCR analysis. The primers of genes including TNF-α,
IL-6, IL-1β, ICAM-1, and β-actin were synthesized by Invitrogen. The primer
sequences of mouse genes used are shown as follows:
TNF-α sense primer, 5′-[…]-3
TNF-α antisense primer, 5′-[…]-3′;
IL-6 sense primer, 5′-[…]-3′;
IL-6 antisense primer, 5′-[…]-3′;
IL-1β sense primer, 5′-[…]-3′;
IL-1β antisense primer, 5′-[…]-3′;
ICAM-1 sense primer, 5′-[…]-3′;
ICAM-1 antisense primer, 5′-[…]-3′;
β-actin sense primer, 5′-[…]-3′;
β-actin antisense primer, 5′-[…]-3′.
Statistical Analysis. The results are presented as the mean ±SD. The Student’s t test
was employed to analyze the differences between sets of data. Statistics were performed
using GraphPad Pro (GraphPad, San Diego, CA). P values less than 0.05 (p < 0.05)

LPS-induced IL-6 release = LPS-induced IL-6 release in mouse primary peritoneal macrophages (ELISA); type: cell-based; conditions: Peritoneal macrophage, LPS (0.5 μg/mL) 24 h, 30 min pretreatment, read-out: IC50 against the release of IL-6
Description: as §3, §4, §5, §6, §7, §8

[7] = Tissue distribution after single intravenous administration; type: in vivo, SD rats; conditions: iv 2 mg kg^–1, rat
Description: Tissue Distribution Assay. Compound 15a (2 mg/kg) dissolved in PEG300/EtOH/NaCl(40/10/50, v/v/v)to a concentration of 0.4 mg/mL, and was […]
given to SD rats (Male, 180–220 g, three groups with three rats in each group) by intravenous administration. Blood samples and the important tissues including heart, liver, lung, kidney, and brain were collected at 0.25, 2 and 12 h after administration (anticoagulant: EDTA-Na2). For plasma samples, 250 μL of solvent of methanol: acetonitrile (1:1, v/v) with internal standard was added to 50 μL of plasma and vortexed thoroughly. For tissue samples, three times the weight of volume of PBS were added, then homogenized. The homogenates were precipitated by five times of methanol: acetonitrile (1:1, v/v) with internal standard. They were centrifuged for 5 min, and then 20 μL of the supernatant was mixed with 20 μL of water for analysis. Samples were analyzed by AB6500 triple quadrupole mass spectrometer (AB Sciex, USA). The ACQUITY UPLC BEH C18 (1.7 μm, 2.0 mm × 50 mm, Waters, USA) was used for the analysis. Gradient elution was applied consisting of ultrapure water containing 0.1% formic acid and acetonitrile containing 0.1% formic acid. […]

[8] = pretreatment 5 mg kg^–1 i.v., LPS, 6 h

T1 sequence (Q12809 whole entry): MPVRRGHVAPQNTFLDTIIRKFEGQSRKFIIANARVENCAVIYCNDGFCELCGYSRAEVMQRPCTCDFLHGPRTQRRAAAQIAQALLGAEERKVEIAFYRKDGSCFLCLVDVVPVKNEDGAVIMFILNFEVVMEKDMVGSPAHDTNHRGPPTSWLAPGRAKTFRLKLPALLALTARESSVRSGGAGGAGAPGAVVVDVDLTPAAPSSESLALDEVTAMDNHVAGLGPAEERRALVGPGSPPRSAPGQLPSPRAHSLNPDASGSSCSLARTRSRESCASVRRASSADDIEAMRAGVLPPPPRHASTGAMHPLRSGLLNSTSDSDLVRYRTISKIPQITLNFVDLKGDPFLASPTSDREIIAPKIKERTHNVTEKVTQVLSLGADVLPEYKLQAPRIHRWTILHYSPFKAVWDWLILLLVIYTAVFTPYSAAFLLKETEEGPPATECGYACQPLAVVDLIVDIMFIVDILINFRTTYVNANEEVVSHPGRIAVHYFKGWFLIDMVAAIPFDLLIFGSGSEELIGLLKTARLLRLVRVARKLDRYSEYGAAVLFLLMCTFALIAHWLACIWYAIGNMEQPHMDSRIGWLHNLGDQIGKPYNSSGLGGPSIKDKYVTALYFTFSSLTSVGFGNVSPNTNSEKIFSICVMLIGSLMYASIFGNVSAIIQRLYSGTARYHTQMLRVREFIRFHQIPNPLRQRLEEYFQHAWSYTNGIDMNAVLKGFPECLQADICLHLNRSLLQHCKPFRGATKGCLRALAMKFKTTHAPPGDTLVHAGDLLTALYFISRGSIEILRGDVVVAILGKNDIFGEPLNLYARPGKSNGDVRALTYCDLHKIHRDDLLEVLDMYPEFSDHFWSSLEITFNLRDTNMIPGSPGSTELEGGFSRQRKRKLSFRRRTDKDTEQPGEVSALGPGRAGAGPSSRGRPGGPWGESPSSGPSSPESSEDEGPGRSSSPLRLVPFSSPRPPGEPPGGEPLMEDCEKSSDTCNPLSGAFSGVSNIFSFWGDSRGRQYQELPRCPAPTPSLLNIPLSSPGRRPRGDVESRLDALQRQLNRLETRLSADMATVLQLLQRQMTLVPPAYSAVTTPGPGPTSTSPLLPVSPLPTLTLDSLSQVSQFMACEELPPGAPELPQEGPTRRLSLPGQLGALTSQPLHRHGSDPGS

Clint in vitro [1]: 277.17 mL min^–1 g^–1 protein
half-life at 0.1 μM [1]: 7.58 min
half-life at 0.1 μM [2]: 3.15 min
Clint in vitro [2]: 666.40 mL min^–1 g^–1 protein
SMILES: Cc1coc2c1C(=O)C(=O)c1c-2ccc2c1CCCC2(C)C [Compound 2, tanshinone IIA, reference compound]
F (oral bioavailability) [3]: < 3.5%
T1/2 [3]: 20.4 min

Vss_obs ([4]; iv, 1.0 mg/kg): 5.98 L/kg
AUC ([4]; plasma, iv, 1.0 mg/kg): 485 ng·h/mL
half-life ([4]; plasma, iv, 1.0 mg/kg): 300 min
clearance ([4]; plasma, iv, 1.0 mg/kg, read-out: CL_obs): 34.9 mL/min/kg
MRT inf ([4]; plasma, iv, 1.0 mg/kg): 179 min
AUC ([4]; plasma, po, 3.0 mg/kg): 426 ng·h/mL
Cmax ([4]; plasma, po, 3.0 mg/kg): 81.2 ng/mL
MRT inf ([4]; plasma, po, 3.0 mg/kg): 320 min
F (oral bioavailability) ([4]; po 3.0 mg/kg vs iv 1.0 mg/kg): 30.2%
T1/2 ([4]; po, 3.0 mg/kg): 243 min
Tma ([4]; po, 3.0 mg/kg): 1.83 h
enhancement of metabolic stability compared to 2 ([1]; human and rat microsomes): 4- to 7 fold
Clint in vitro [1]: 61.62 mL min^–1 g^–1 protein
half-life at 0.1 μM [1]: 34.1 min
IC50 [6]: 6.37 µM
IC50 (LPS-induced IL-6 release): 1.62 µM
half-life at 0.1 μM [2]: 23.5 min
Clint in vitro [2]: 89.44 mL min^–1 g^–1 protein
Concentration in brain ([7]; 0.25 h): 224 ng g^–1
Concentration in heart ([7]; 0.25 h): 992 ng g^–1
Concentration in heart plasma ([7]; 0.25 h): 144 ng mL^–1
Concentration in kidney ([7]; 0.25 h): 806 ng g^–1
Concentration in liver ([7]; 0.25 h): 2557 ng g^–1
Concentration in lung ([7]; 0.25 h): 3320 ng g^–1
Concentration in portal vein plasma ([7]; 0.25 h): 142 ng mL^–1
Concentration in brain ([7]; 2 h): 93.9 ng g^–1
Concentration in heart ([7]; 2 h): 223 ng g^–1
Concentration in heart plasma ([7]; 2 h): 31.2 ng mL^–1
Concentration in kidney ([7]; 2 h): 187 ng g^–1
Concentration in liver ([7]; 2 h): 518 ng g^–1
Concentration in lung ([7]; 2 h): 847 ng g^–1
Concentration in portal vein plasma ([7]; 2 h): 33.1 ng mL^–1
Concentration in brain ([7]; 12 h): 3.11 ng g^–1
Concentration in heart ([7]; 12 h): 19.8 ng g^–1
Concentration in heart plasma ([7]; 12 h): 1.90 ng mL^–1
Concentration in kidney ([7]; 12 h): 33.0 ng g^–1
Concentration in liver ([7]; 12 h): 57.3 ng g^–1
Concentration in lung ([7]; 12 h): 633 ng g^–1
Concentration in portal vein plasma ([7]; 12 h): 2.04 ng mL^–1
lung drug concentration relative to other tissues ([7]; 12 h): 11 to 300 times
SMILES: Cc1coc2c1C(=O)c1c3c-2ccc2c3c(n1Cc1ccccc1)C(=O)CC2(C)C [Compound 15a]
IC50 [5]: > 40 µM
mRNA expression of TNF-α, IL-6, IL-1β and ICAM-1 in lung tissue (RT-qPCR) (LPS-induced ALI in mice; LPS-treated lung tissues, 5 mg/kg i.v.): markedly suppressed
lung wet/dry weight ratio (lung edema) (LPS-induced ALI in mice; pretreatment 5 mg kg^–1 i.v., 15 min before LPS 5 mg/kg intratracheal, 6 h): effectively reduced
lung macrophage infiltration (CD68 immunostaining) (LPS-induced ALI in mice; pretreatment 5 mg kg^–1 i.v., LPS): significantly attenuated
histopathological features of lung (H&E) (LPS-induced ALI in mice; [8]): very little histopathological changes
level of IL-6 in BALF (LPS-induced ALI in mice; [8]): distinctly suppressed
level of IL-6 in serum (LPS-induced ALI in mice; [8]): no significant inhibition
level of TNF-α in BALF (LPS-induced ALI in mice; [8]): distinctly suppressed
level of TNF-α in serum (LPS-induced ALI in mice; [8]): no significant inhibition
number of neutrophils in BALF (LPS-induced ALI in mice; [8]): significantly decreased
protein concentration in BALF (LPS-induced ALI in mice; [8]): significantly inhibited

— PMC6498537, “Biomimetic synthesis of the natural product salviadione and its hybrids: discovery of tissue-specific anti-inflammatory agents for acute lung injury” (Chemical Science, 2019)
